Here are results for 2 molecules from US20220175761A1, “BI-LIGAND DRUG CONJUGATE AND USE THEREOF” (COHERENT BIOPHARMA (SUZHOU), LIMITED, priority 2019, published 2022).

SMILES strings stand for the structures. Square brackets hold non-standard residues; d marks the D form. Peptide text beside a SMILES is read from it. * marks the point of attachment. Dolaproine = CO[C@@H]([C@@H]1CCCN1)[C@@H](C)C(=O)O; Dil = CC[C@H](C)[C@H](NC)[C@@H](CC(=O)O)OC; X1 = C[C@@H](N*)[C@@H](O)c1ccccc1; NMeV = CN[C@H](C(=O)O)C(C)C

The target in one data set is T1, FOLR1 (Homo sapiens, UniProt P15328).
T1 construct: purchased R&D System 5646-FR
T1 sequence (P15328 25-233 limits assumed): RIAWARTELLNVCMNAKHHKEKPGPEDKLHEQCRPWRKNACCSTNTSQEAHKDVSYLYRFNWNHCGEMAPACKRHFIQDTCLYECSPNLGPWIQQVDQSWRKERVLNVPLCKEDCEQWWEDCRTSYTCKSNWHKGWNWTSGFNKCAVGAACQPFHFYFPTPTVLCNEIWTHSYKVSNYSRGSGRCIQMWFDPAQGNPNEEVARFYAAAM
Put plainly: BIAcore T200 binding affinity to FOLR1 (CM5 chip conjugated with FOLR1). The source says:
Buffer: HBS-EP+ buffer 10× (GE, Cat #: BR100669), diluted 10 folds with deionized water before use.
In the experiment, CM5 chip was conjugated with ligand FOLR1 (R&D System, Cat #: 5646-FR).

A further data set concerns LNCaP. Put plainly: Pharmacodynamic study 2 in CDX model. The settings on record: 3 mg/kg D1, 8, 15, tail vein. The format is in vivo, BALB/c-nude mice. On the procedure:
Experiment purpose: to perform a pharmacodynamic study of conjugate compound CB-20BK in a subcutaneous xenograft model (CDX) of humanized LNCaP, DU145 and NCI-H460 cell lines
The cells or tumor tissue mass were prepared and subcutaneously inoculated into the anterior right flank of BALB/c-nude mice. When the tumor volume expanded to 80-160 mm^3, a randomized grouping was performed, and a model control group and administration groups were set. The mice were administrated from the first day of grouping, wherein the administration dose was adjusted according to the latest weight measurement. The mice were administrated via tail vein injection at an administration volume of 10 μl/g. After grouping and administration, the effects of tumor growth and treatment on normal behaviors of animals, specifically including the activity of experimental animals, food intake and drinking status, weight gain or loss status, and other abnormal conditions in eyes, hair, etc., were monitored. After grouping and administration, the weight of mice was measured twice a week to calculate the rate of weight change; at the same time, the long diameter and short diameter of the tumor were measured with a vernier caliper, and the tumor volume, relative tumor proliferation rate, tumor volume inhibition rate and other indicators were calculated. […]

Data set [1] relates to lung cancer PDX model LU2505. Briefly: Effectiveness in lung cancer LU2505 model (PDX model). It is filed as in vivo, BALB/c nude mice. The source says:
The active substance of test sample CBP-1018 is CB-20BK, which is obtained by mixing CB-20BK with auxiliary materials and then lyophilizing same.

Data set [2] relates to lung cancer PDX model LU1206. Briefly: Effectiveness in lung cancer LU1206 model (PDX model). The format is in vivo, BALB/c nude mice.
Protocol: (§1) BALB/c nude mice bore tumors subcutaneously and, when the tumor volume reached about 150 mm^3, were grouped into: low-dose, medium-dose and high-dose test sample groups, a small molecule MMAE control group, a targeting polypeptide 20BK-SM09 control group, and a blank control group (a total of 6 groups, and 8 mice per group); the mice were administered on day 1, day 8 and day 15 after the grouping; and the observation was continued for 14 days after the last administration.
Data set [3] is described as follows: Body weight and clinical observation in the LU1206 study. The settings on record: 0.375 mg/kg on day 1, 8, 15.
Protocol: as §1
Data set [4] relates to NCI-H226 (human lung cancer cells). Put plainly: Inhibition of cell line proliferation, CCK8. The format is cell-based. The settings on record: NCI-H226, 68-72 hours, CCK8.
The subject of data set [5] is MDA-MB-468 (human breast cancer cells). Put plainly: Inhibition of cell line proliferation, CCK8. The format is cell-based. The settings on record: MDA-MB-468, 68-72 hours, CCK8.
[6] abbreviates: FOLR1 on CM5 chip, N/D = no specific binding was detected.
The mark [7] stands for this setting: 0.375 mg/kg on day 1, 8, 15, D22.
The mark [8] stands for this setting: 0.375 mg/kg on day 1, 8, 15, euthanized on day 29.

`CC[C@H](C)[C@@H]([C@@H](CC(=O)N1CCC[C@H]1[C@H](OC)[C@@H](C)C(=O)N[C@H](C)[C@@H](O)c1ccccc1)OC)N(C)C(=O)[C@@H](NC(=O)[C@H](C(C)C)N(C)C(=O)OCc1ccc(NC(=O)C(CCCNC(N)=O)NC(=O)[C@@H](NC(=O)CCCCCN2C(=O)CC(SC[C@H](NC(=O)[C@H](CCCCN)NC(=O)[C@H](CC(=O)O)NC(=O)[C@H](CC(=O)O)NC(=O)Cc3ccc(CNC(=O)NCCCC[C@H](NC(=O)N[C@@H](CCC(=O)O)C(=O)O)C(=O)O)cc3)C(=O)N[C@@H](CCCCNC(=O)CC[C@H](NC(=O)c3ccc(NCc4cnc5[nH]c(N)nc(=O)c5n4)cc3)C(=O)O)C(N)=O)C2=O)C(C)C)cc1)C(C)C` (some centres unmarked) [CB-20BK]: on FOLR1 (BIAcore T200), the “specific binding to FOLR1 (in words)” value was “specifically binds to FOLR1 with a good affinity”. On FOLR1 (setting [6]), this molecule registered a Kd of 0.127 nM and a kd of 0.000131 s⁻¹. Also, at FOLR1 (FOLR1 on CM5 chip, N/D = no specific binding was detected, read-out: ka), the kon came out at 1.03e+06 M⁻¹ s⁻¹. For the same molecule, the “Tumor growth inhibition rate (TGI)” value in the data set with LNCaP worked out at 95.68%.
For the molecule `CC[C@H](C)[C@@H]([C@@H](CC(=O)N1CCC[C@H]1[C@H](OC)[C@@H](C)C(=O)N[C@H](C)[C@@H](O)c1ccccc1)OC)N(C)C(=O)[C@@H](NC(=O)[C@@H](NC)C(C)C)C(C)C` [MMAE, monomethyl auristatin E] (H-[NMeV]V[Dil][Dolaproine]-X1), the “tumor growth inhibition effect (in words)” value in data set [1] (0.375 mg/kg) and in data set [2] (0.375 mg/kg) was “clear tumor growth inhibition effect” in each case. Also, the “Tumor growth inhibition rate TGI %” value in data set [1] (setting [7]) came to 48.97%. The Tumor volume in data set [1] (setting [7]) is given as 1132.61 mm^3; in data set [2] (0.375 mg/kg on day 1, 8, 15), 778.32 mm^3. The Tumor weight was 1597.1 (D29) mg in data set [1] (0.375 mg/kg on day 1, 8, 15, D29) and 437.73 mg in data set [2] (setting [8]). The “Tumor volume Tumor growth inhibition rate” value in data set [2] (0.375 mg/kg on day 1, 8, 15) is 36.03%. Moreover, the “Tumor weight Inhibition ratio” value in data set [2] (setting [8]) is reported as 54.53%. In data set [3], this molecule showed a Weight of 23.6 g. In addition, the IC50 in data set [4] was 6 nM; in data set [5], 2 nM.

Broadly, the Kd is the constant that tells how readily two partners part at equilibrium. Low values mean higher affinity, high ones lower affinity. Usually IC50 stands for the concentration needed to halve the response being measured. Lower therefore signals higher potency.
